How the values were obtained:
[1] = Molar enthalpy of transition or fusion; details: Crystal 2; Adiabatic calorimetry
[2] = for molar entropy: 101.33 kPa, Small (less than 1 g) adiabatic calorimetry

CCC(=O)O[C@]1(C(=O)COC(C)=O)CC[C@H]2[C@@H]3C[C@H](C)C4=CC(=O)C=C[C@]4(C)[C@H]3[C@@H](O)C[C@@]21C [Methylprednisolone aceponate]
Details | Molar enthalpy of transition or fusion [kcal/mol]
[1] | 0.0526

[2]
Details | molar entropy [J/K/mol]
5 K, Crystal 2 | 0.628
10 K, Crystal 2 | 4.44
15 K, Crystal 2 | 10.8
20 K, Crystal 2 | 18.5
25 K, Crystal 2 | 27.49
30 K, Crystal 2 | 37.43
40 K, Crystal 2 | 58.9
50 K, Crystal 2 | 81.57
60 K, Crystal 2 | 105
70 K, Crystal 2 | 128.9
80 K, Crystal 2 | 152.9
90 K, Crystal 2 | 177.1
100 K, Crystal 2 | 201.3
110 K, Crystal 2 | 225.4
120 K, Crystal 2 | 249.3
130 K, Crystal 2 | 273.2
140 K, Crystal 1 | 296.3
150 K, Crystal 1 | 318.6
160 K, Crystal 1 | 340.7
170 K, Crystal 1 | 362.5
180 K, Crystal 1 | 384.1
190 K, Crystal 1 | 405.4
200 K, Crystal 1 | 426.6
210 K, Crystal 1 | 447.6
220 K, Crystal 1 | 468.5
230 K, Crystal 1 | 489.3
240 K, Crystal 1 | 509.9
250 K, Crystal 1 | 530.5
260 K, Crystal 1 | 551
270 K, Crystal 1 | 571.5
280 K, Crystal 1 | 591.8
290 K, Crystal 1 | 612.1
298.15 K, Crystal 1 | 628.6
300 K, Crystal 1 | 632.4
310 K, Crystal 1 | 652.6
320 K, Crystal 1 | 672.9
330 K, Crystal 1 | 693.1
340 K, Crystal 1 | 713.4
346 K, Crystal 1 | 725.6

Details | Triple point temperature [K]
[2], Crystal 2, Adiabatic calorimetry | 131
